# Biological target: glucosylceramide synthase (GCS) (Homo sapiens (Human), UniProt Q16739)
# Assay: Inhibitory activity against GCS (A549 cell lysate enzyme reaction, HPLC fluorescence)
# Assay type: biochemical
# Conditions: NBD C6-ceramide and UDP-glucose, 37° C. for 90 minutes
# Experimental: Ibiglustat, known as a GCS inhibitor, was used as a control.
# After the cells attached to the culture dish were washed with phosphate buffered saline (PBS), the cells were scraped off with a cell scraper and then centrifuged (4000 rpm, 3 min, 4° C.) to collect the cells in a 50 ml tube. The cell pellets were suspended in a lysis buffer (50 mM HEPES, pH 7.3, containing 1× the protease/phosphatase inhibitor cocktail), lysed by sonication, and then the lysate was centrifuged (13000 rpm, 10 min, 4° C.). The obtained supernatant was used for the quantitative analysis of proteins. The amount of proteins was measured using the BCA protein assay kit, using bovine serum albumin as a standard.
# Enzymatic reactions were initiated by sequentially adding the following reaction materials to a 96 deep-well plate. Thereafter, the enzymatic reactions were performed at 37° C. for 90 minutes.
# The enzymatic reactions were stopped by adding 100 μl of chloroform/methanol (2:1, v/v). […] The lower layer (50 μl) was transferred to a new 96 deep-well plate and dried with a reduced concentrator.
row,Compound,IC50 [nM]
1,"(S)-quinuclidin-3-yl (2,2-dimethyl-(2,4,5-trifluorophenyl)-2,3-dihydro-1H-inden-1-yl)carbamate [Example 68]",15.2

# Tested on: GM1 production in Jurkat cells
# Assay: cells
# Assay type: cell-based
# Conditions: Homo sapiens, Jurkat, 72 h
row,Compound,IC50 [nM]
1,"CCOc1ccc(-c2cc3c(cc2F)C(NC(=O)O[C@@H]2CN4CCC2CC4)C(C)(C)C3)cc1F (stereo partly drawn) [Example 387, (S)-quinuclidin-3-yl (5-(4-ethoxy-3-fluorophenyl)-6-fluoro-2,2-dimethyl-2,3-dihydro-1H-inden-1-yl)carbamate]",48.2
2,"Cc1cc(-c2cc3c(cc2F)C(NC(=O)O[C@@H]2CN4CCC2CC4)C(C)(C)C3)cc(C)c1OC(C)C (stereo partly drawn) [Example 388, (S)-quinuclidin-3-yl (6-fluoro-5-(4-isopropoxy-3,5-dimethylphenyl)-2,2-dimethyl-2,3-dihydro-1H-inden-1-yl)carbamate]",93.1
3,"O=C(NC1c2ccc(-c3ccc(F)cc3)cc2CC12CC2)O[C@@H]1CN2CCC1CC2 (stereo partly drawn) [Example 389, (S)-quinuclidin-3-yl (5′-(4-fluorophenyl)-1′,3′-dihydrospiro[cyclopropane-1,2′-inden]-1′-yl)carbamate]",76.5
4,"O=C(NC1c2ccc(-c3ccc(Cl)cc3)cc2CC12CC2)O[C@@H]1CN2CCC1CC2 (stereo partly drawn) [Example 390, (S)-quinuclidin-3-yl (5′-(4-chlorophenyl)-1′,3′-dihydrospiro[cyclopropane-1,2′-inden]-1′-yl)carbamate]",44.1
5,"O=C(NC1c2ccc(-c3ccc(C(F)(F)F)cc3)cc2CC12CC2)O[C@@H]1CN2CCC1CC2 (stereo partly drawn) [Example 391, (S)-quinuclidin-3-yl (5′-(4-(trifluoromethyl)phenyl)-1′,3′-dihydrospiro[cyclopropane-1,2′-inden]-1′-yl)carbamate]",55.3
6,"O=C(NC1c2ccc(-c3ccc(OC(F)(F)F)cc3)cc2CC12CC2)O[C@@H]1CN2CCC1CC2 (stereo partly drawn) [Example 392, (S)-quinuclidin-3-yl (5′-(4-(trifluoromethoxy)phenyl)-1′,3′-dihydrospiro[cyclopropane-1,2′-inden]-1′-yl)carbamate]",41.9
7,"O=C(NC1c2ccc(-c3cccc(Cl)c3)cc2CC12CC2)O[C@@H]1CN2CCC1CC2 (stereo partly drawn) [Example 393, (S)-quinuclidin-3-yl (5′-(3-chlorophenyl)-1′,3′-dihydrospiro[cyclopropane-1,2′-inden]-1′-yl)carbamate]",54.9
8,"O=C(NC1c2ccc(-c3cccc(C(F)(F)F)c3)cc2CC12CC2)O[C@@H]1CN2CCC1CC2 (stereo partly drawn) [Example 394, (S)-quinuclidin-3-yl (5′-(3-(trifluoromethyl)phenyl)-1′,3′-dihydrospiro[cyclopropane-1,2′-inden]-1′-yl)carbamate]",48.8
9,"COCCOc1ccc(-c2ccc3c(c2)CC2(CC2)C3NC(=O)O[C@@H]2CN3CCC2CC3)cc1 (stereo partly drawn) [Example 395, (S)-quinuclidin-3-yl (5′-(4-(2-methoxyethoxy)phenyl)-1′,3′-dihydrospiro[cyclopropane-1,2′-inden]-1′-yl)carbamate]",30.9
10,"COCCOc1cccc(-c2ccc3c(c2)CC2(CC2)C3NC(=O)O[C@@H]2CN3CCC2CC3)c1 (stereo partly drawn) [Example 396, (S)-quinuclidin-3-yl (5′-(3-(2-methoxyethoxy)phenyl)-1′,3′-dihydrospiro[cyclopropane-1,2′-inden]-1′-yl)carbamate]",39.6
11,"COCOc1ccc(-c2ccc3c(c2)CC2(CC2)C3NC(=O)O[C@@H]2CN3CCC2CC3)cc1 (stereo partly drawn) [Example 397, (S)-quinuclidin-3-yl (5′-(4-(methoxymethoxy)phenyl)-1′,3′-dihydrospiro[cyclopropane-1,2′-inden]-1′-yl)carbamate]",17.4
12,"COCOc1cccc(-c2ccc3c(c2)CC2(CC2)C3NC(=O)O[C@@H]2CN3CCC2CC3)c1 (stereo partly drawn) [Example 398, (S)-quinuclidin-3-yl (5′-(3-(methoxymethoxy)phenyl)-1′,3′-dihydrospiro[cyclopropane-1,2′-inden]-1′-yl)carbamate]",36.6
13,"CC1(C)CC(NC(=O)O[C@@H]2CN3CCC2CC3)c2ccc(-c3cccc(Cl)c3)cc21 (stereo partly drawn) [Example 399, (S)-quinuclidin-3-yl (5-(3-chlorophenyl)-3,3-dimethyl-2,3-dihydro-1H-inden-1-yl)carbamate]",43.6
14,"CC1(C)CC(NC(=O)O[C@@H]2CN3CCC2CC3)c2ccc(-c3ccccc3Cl)cc21 (stereo partly drawn) [Example 400, (S)-quinuclidin-3-yl (5-(2-chlorophenyl)-3,3-dimethyl-2,3-dihydro-1H-inden-1-yl)carbamate]",108
15,"CC1(C)CC(NC(=O)O[C@@H]2CN3CCC2CC3)c2ccc(-c3cccc(C(F)(F)F)c3)cc21 (stereo partly drawn) [Example 401, (S)-quinuclidin-3-yl (3,3-dimethyl-5-(3-(trifluoromethyl)phenyl)-2,3-dihydro-1H-inden-1-yl)carbamate]",15.1
16,"CC1(C)CC(NC(=O)O[C@@H]2CN3CCC2CC3)c2ccc(-c3cccc(OC(F)(F)F)c3)cc21 (stereo partly drawn) [Example 402, (S)-quinuclidin-3-yl (3,3-dimethyl-5-(3-(trifluoromethoxy)phenyl)-2,3-dihydro-1H-inden-1-yl)carbamate]",19.5
17,"CC1(C)CC(NC(=O)O[C@@H]2CN3CCC2CC3)c2ccc(-c3ccccc3OC(F)(F)F)cc21 (stereo partly drawn) [Example 403, (S)-quinuclidin-3-yl (3,3-dimethyl-5-(2-(trifluoromethoxy)phenyl)-2,3-dihydro-1H-inden-1-yl)carbamate]",85.3
18,"O=C(NC1COc2cc(-c3cccc(C(F)(F)F)c3)ccc21)O[C@@H]1CN2CCC1CC2 (stereo partly drawn) [Example 404, (S)-quinuclidin-3-yl (6-(3-(trifluoromethyl)phenyl)-2,3-dihydrobenzofuran-3-yl)carbamate]",25.9
19,"O=C(NC1COc2cc(-c3cccc(OC(F)(F)F)c3)ccc21)O[C@@H]1CN2CCC1CC2 (stereo partly drawn) [Example 405, (S)-quinuclidin-3-yl (6-(3-(trifluoromethoxy)phenyl)-2,3-dihydrobenzofuran-3-yl)carbamate]",44.7
20,"CC1(C)Oc2ccc(-c3cccc(F)c3)cc2C1NC(=O)O[C@@H]1CN2CCC1CC2 (stereo partly drawn) [Example 406, (S)-quinuclidin-3-yl (5-(3-fluorophenyl)-2,2-dimethyl-2,3-dihydrobenzofuran-3-yl)carbamate]",120
21,"CC1(C)Oc2cc(-c3cccc(F)c3)ccc2C1NC(=O)O[C@@H]1CN2CCC1CC2 (stereo partly drawn) [Example 407, (S)-quinuclidin-3-yl (6-(3-fluorophenyl)-2,2-dimethyl-2,3-dihydrobenzofuran-3-yl)carbamate]",44.4
22,"CC1(C)Oc2cc(-c3cccc(Cl)c3)ccc2C1NC(=O)O[C@@H]1CN2CCC1CC2 (stereo partly drawn) [Example 408, (S)-quinuclidin-3-yl (6-(3-chlorophenyl)-2,2-dimethyl-2,3-dihydrobenzofuran-3-yl)carbamate]",15.8
23,"CC1(C)Oc2cc(-c3cccc(C(F)(F)F)c3)ccc2C1NC(=O)O[C@@H]1CN2CCC1CC2 (stereo partly drawn) [Example 409, (S)-quinuclidin-3-yl (2,2-dimethyl-6-(3-(trifluoromethyl)phenyl)-2,3-dihydrobenzofuran-3-yl)carbamate]",14.9
24,"CC1(C)Oc2cc(-c3cccc(OC(F)(F)F)c3)ccc2C1NC(=O)O[C@@H]1CN2CCC1CC2 (stereo partly drawn) [Example 410, (S)-quinuclidin-3-yl (2,2-dimethyl-6-(3-(trifluoromethoxy)phenyl)-2,3-dihydrobenzofuran-3-yl)carbamate]",13

# Same assay, conditions: read-out: IC50
row,Compound,IC50 [nM]
1,"(S)-quinuclidin-3-yl (2,2-dimethyl-(2,4,5-trifluorophenyl)-2,3-dihydro-1H-inden-1-yl)carbamate [Example 68]",91.8
2,"(S)-quinuclidin-3-yl (6-(3-(2-methoxyethoxy)phenyl)-2,2-dimethyl-2,3-dihydrobenzofuran-3-yl)carbamate [Example 411]",79.3
